Assay results from patent US20090105217A1, “2-PHENYL-5-AMINO-1,3,4-OXADIAZOLES AND THEIR USE AS NICOTINIC ACETYLCHOLINE RECEPTOR LIGANDS” (priority 2007, published 2009).

These molecules were tested against T1, human α7 nAChR (Homo sapiens, UniProt P36544) (assay: α7 nAChR FLIPR (Fluorometric Imaging Plate Reader) Ca2+ assay, agonist EC50). Conditions: GH4C1 cells stably transfected with human α7 nAChR; Fluo-4 Ca2+ fluorescence; Examples 194 to 205 tested as the HCl salt; read-out: pEC50 value (negative logarithm of the agonist EC50) (converted).
T1 construct: host or cells: GH4C1 cells (pituitary tumor, immortalized cell line)
T1 sequence (P36544 23-502): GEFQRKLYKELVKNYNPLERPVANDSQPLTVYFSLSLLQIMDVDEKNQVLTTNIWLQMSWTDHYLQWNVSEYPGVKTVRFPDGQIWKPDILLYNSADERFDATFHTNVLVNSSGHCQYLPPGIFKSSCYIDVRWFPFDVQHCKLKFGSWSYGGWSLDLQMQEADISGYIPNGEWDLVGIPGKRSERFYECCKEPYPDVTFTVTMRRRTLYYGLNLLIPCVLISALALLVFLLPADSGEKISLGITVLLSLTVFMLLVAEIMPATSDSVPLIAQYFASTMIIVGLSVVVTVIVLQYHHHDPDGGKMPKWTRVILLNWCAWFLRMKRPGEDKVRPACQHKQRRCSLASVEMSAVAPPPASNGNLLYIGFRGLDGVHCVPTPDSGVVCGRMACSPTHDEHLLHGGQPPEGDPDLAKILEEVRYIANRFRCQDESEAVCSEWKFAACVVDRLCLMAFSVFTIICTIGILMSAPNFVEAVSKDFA
Format: cell-based
Protocol: α7 nAChR FLIPR® (Fluorometric Imaging Plate Reader) Assay
Function of the heterologous expressed α7 nAChR was assessed by a FLIPR-Ca^2+ assay. Since nAChRs are non-selective cation channels with high permeability to Ca^2+, these studies were carried out by measuring changes of intracellular Ca^2+ concentration using the Ca^2+-chelating fluorescent dye Fluo-4 and FLIPR® (Fluorometric Imaging Plate Reader) technology.
GH4C1cells (pituitary tumor, immortalized cell line) stably transfected with human α7 nAChR (Biocat ID 96986), were thawed, suspended in growth medium (Ham's Nutrient Mixture F10—Ham's F10, Invitrogen 31550-023, 15% Horse Serum heat inactivated—Invitrogen 26050-047, 2.5% Foetal Bovine Serum—FBS, Gibco 10500-064, 200 μg/ml Hygromycin B—Invitrogen, 10687-010, 10 mg/L Phenol Red—Sigma, P 0290, 1 mM Glutamine—Invitrogen, 25030-024) and plated in 500 cm^2 Triple Flask.
Cells were then incubated at 30° C., 5% CO2 for 72 hours.
On the day of the experiment, cells were washed twice with Assay Buffer (AB) (145 mM NaCl, 5 mM KCl, 1 mM MgCl2, 2 mM CaCl2, 20 mM HEPES, 5.5 mM Glucose pH=7.3) containing 2.5 mM Probenecid. Changes in the intracellular Ca^2+ content of stably transfected cells were measured using the Ca^2+ chelating dye Fluo-4 (Tef Labs 0152) in conjunction with a FLIPR® (Molecular Devices). The cell permeant dye Fluo-4 was prepared to a concentration of 1 mM in 100% DMSO and 10% Pluronic acid. The dye was then diluted with AB to a final concentration of 2 μM and placed on the cells. After 45-60 minutes dye loading incubation at 37° C., the unincorporated dye was removed from the cells by washing (80 μL, 3 times) with AB, and a final volume of 30 μL/well of AB was left in each well.
Plates containing test compounds (dissolved in 100% DMSO at 2 mM and serially diluted with DMSO) were copied into “daughter” plates (1 μL/well dispensation). Just prior to starting the assay, the “daughter” plate was diluted with 50 μL/well of AB.
The plates were then placed in the FLIPR®, and cell fluorescence was determined before drug addition (30 seconds) and monitored (excitation 488 nm, emission 510-580 nm) immediately following exposure to compounds. Maximum fluorescence values were recorded and fitted for agonist EC50 calculations.
The results are expressed as pEC50 values. A pEC50 is the negative logarithm of the agonist EC50 calculation as determined in the α7 nAChR FLIPR® assay. […] Variations in pEC50 may arise between tests.

**Q.** How did the EC50 turn out when `O=C(Nc1ccc(-c2nnc(NCCCN3CCCC3)o2)c(C(F)(F)F)c1)C1CCCCC1` [Example 63, N-[4-(5-{[3-(1-pyrrolidinyl)propyl]amino}-1,3,4-oxadiazol-2-yl)-3-(trifluoromethyl)phenyl]cyclohexanecarboxamide] was run?
**A.** The EC50 was ≤ 1 µM.

**Q.** `O=C(Nc1ccc(-c2nnc(NCCCCN3CCCC3)o2)c(C(F)(F)F)c1)C1CCCCC1` [Example 64, N-[4-(5-{[4-(1-pyrrolidinyl)butyl]amino}-1,3,4-oxadiazol-2-yl)-3-(trifiuoromethyl)phenyl]cyclohexanecarboxamide] was tested. Which EC50 did it give?
**A.** Its EC50 is ≤ 1 µM.

**Q.** How did the EC50 turn out when `O=C(Nc1ccc(-c2nnc(NCCCCN3CCOCC3)o2)c(C(F)(F)F)c1)C1CCCCC1` [Example 66, N-[4-(5-{[4-(4-morpholinyl)butyl]amino}-1,3,4-oxadiazol-2-yl)-3-(trifluoromethyl)phenyl]cyclohexanecarboxamide] was run?
**A.** The EC50 was ≤ 1 µM.

**Q.** For `CCN(CC)CCCNc1nnc(-c2ccc(NC(=O)C3CCCCC3)cc2C(F)(F)F)o1` [Example 67, N-[4-(5-{[3-(diethylamino)propyl]amino}-1,3,4-oxadiazol-2-yl)-3-(trifluoromethyl)phenyl]cyclohexanecarboxamide], which EC50 is on record?
**A.** The EC50 was ≤ 1 µM.

**Q.** How did the EC50 turn out when `CCN(CC)CCCCNc1nnc(-c2ccc(NC(=O)C3CCCCC3)cc2C(F)(F)F)o1` [Example 68, N-[4-(5-{[4-(diethylamino)butyl]amino}-1,3,4-oxadiazol-2-yl)-3-(trifluoromethyl)phenyl]cyclohexanecarboxamide] was run?
**A.** Its EC50 is ≤ 1 µM.

**Q.** For `O=C(Nc1ccc(-c2nnc(NCCCN3CCCC3)o2)cc1)c1ccccc1` [Example 69, N-[4-(5-{[3-(1-pyrrolidinyl)propyl]amino}-1,3,4-oxadiazol-2-yl)phenyl]benzamide], which EC50 is on record?
**A.** The EC50 was ≤ 1 µM.

**Q.** Which EC50 does the source give for `COc1cc(NC(=O)c2ccccc2)ccc1-c1nnc(NCCCN2CCCC2)o1` [Example 70, N-[3-(methyloxy)-4-(5-{[3-(1-pyrrolidinyl)propyl]amino}-1,3,4-oxadiazol-2-yl)phenyl]benzamide] here?
**A.** The EC50 was ≤ 1 µM.

**Q.** Which EC50 does the source give for `COc1cc(NC(=O)c2ccccc2)ccc1-c1nnc(NCCCN2CCCCC2)o1` [Example 71, N-[3-(methyloxy)-4-(5-{[3-(1-piperidinyl)propyl]amino}-1,3,4-oxadiazol-2-yl)phenyl]benzamide] here?
**A.** The EC50 was ≤ 0.1 µM.

**Q.** Which EC50 does the source give for `COc1cc(NC(=O)c2ccccc2)ccc1-c1nnc(NCCCN2CCOCC2)o1` [Example 72, N-[3-(methyloxy)-4-(5-{[3-(4-morpholinyl)propyl]amino}-1,3,4-oxadiazol-2-yl)phenyl]benzamide] here?
**A.** The EC50 was ≤ 1 µM.

**Q.** With `COc1cc(NC(=O)c2ccccc2)ccc1-c1nnc(NCCCCN2CCOCC2)o1` [Example 73, N-[3-(methyloxy)-4-(5-{[4-(4-morpholinyl)butyl]amino}-1,3,4-oxadiazol-2-yl)phenyl]benzamide] as the molecule, how does the EC50 read?
**A.** Its EC50 is ≤ 0.1 µM.

**Q.** `CCN(CC)CCCNc1nnc(-c2ccc(NC(=O)c3ccccc3)cc2OC)o1` [Example 74, N-[4-(5-{[3-(diethylamino)propyl]amino}-1,3,4-oxadiazol-2-yl)-3-(methyloxy)phenyl]benzamide] was tested. Which EC50 did it give?
**A.** The EC50 was ≤ 1 µM.

**Q.** With `CCN(CC)CCCCNc1nnc(-c2ccc(NC(=O)c3ccccc3)cc2OC)o1` [Example 75, N-[4-(5-{[4-(diethylamino)butyl]amino}-1,3,4-oxadiazol-2-yl)-3-(methyloxy)phenyl]benzamide] as the molecule, how does the EC50 read?
**A.** Its EC50 is ≤ 0.1 µM.

**Q.** Which EC50 does the source give for `COc1cc(NC(=O)c2ccccc2)ccc1-c1nnc(NCCCCN2CCCC2)o1` [Example 76, N-[3-(methyloxy)-4-(5-{[4-(1-pyrrolidinyl)butyl]amino}-1,3,4-oxadiazol-2-yl)phenyl]benzamide] here?
**A.** The EC50 was ≤ 0.1 µM.

**Q.** With `COc1cc(NC(=O)C2CCCCC2)ccc1-c1nnc(NCCCN2CCCC2)o1` [Example 77, N-[3-(methyloxy)-4-(5-{[3-(1-pyrrolidinyl)propyl]amino}-1,3,4-oxadiazol-2-yl)phenyl]cyclohexanecarboxamide] as the molecule, how does the EC50 read?
**A.** The EC50 was ≤ 1 µM.

**Q.** How did the EC50 turn out when `COc1cc(NC(=O)C2CCCCC2)ccc1-c1nnc(NCCCCN2CCCC2)o1` [Example 78, N-[3-(methyloxy)-4-(5-{[4-(1-pyrrolidinyl)butyl]amino}-1,3,4-oxadiazol-2-yl)phenyl]cyclohexanecarboxamide] was run?
**A.** Its EC50 is ≤ 0.1 µM.
